Consider 40 molecules from patent US20090054454A1, “BENZOFURANYL- AND BENZOTHIENYL- PIPERAZINYL QUINOLINES AND METHODS OF THEIR USE” (priority 2007, published 2009).

Structures are written as SMILES. Where a name gives a salt, the structure may show the parent alone.

The first data set deals with Human 5-HT Transporter (Homo sapiens, UniProt P31645). Briefly: Inhibition of 3H-5-HT Uptake by Cells Possessing the Human 5-HT Transporter (HC 5HT Transporter), Jar cells. Particulars: HC-5HTC Transporter Ki (nM), Jar cells treated with staurosporine.
Human 5-HT Transporter, sequence (P31645 whole entry): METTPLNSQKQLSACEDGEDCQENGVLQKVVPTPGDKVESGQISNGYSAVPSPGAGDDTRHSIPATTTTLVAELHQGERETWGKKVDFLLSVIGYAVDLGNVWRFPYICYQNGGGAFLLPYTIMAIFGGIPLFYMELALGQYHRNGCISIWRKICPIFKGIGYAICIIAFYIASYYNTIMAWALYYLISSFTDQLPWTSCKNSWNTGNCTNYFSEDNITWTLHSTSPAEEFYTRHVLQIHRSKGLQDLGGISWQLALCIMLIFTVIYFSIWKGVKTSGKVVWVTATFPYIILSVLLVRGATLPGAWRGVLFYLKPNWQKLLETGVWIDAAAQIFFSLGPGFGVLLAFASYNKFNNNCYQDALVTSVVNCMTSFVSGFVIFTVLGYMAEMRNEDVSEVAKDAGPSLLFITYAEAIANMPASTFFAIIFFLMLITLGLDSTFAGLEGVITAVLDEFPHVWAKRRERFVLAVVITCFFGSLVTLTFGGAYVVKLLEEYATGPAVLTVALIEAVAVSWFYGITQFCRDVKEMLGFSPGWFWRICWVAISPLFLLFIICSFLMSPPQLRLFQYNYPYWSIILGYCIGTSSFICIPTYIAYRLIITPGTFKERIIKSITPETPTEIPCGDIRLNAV
The term Ki denotes the equilibrium dissociation constant of an inhibitor or competing ligand from its target. Turning to `Clc1cc(N2CCN(CCc3coc4ccccc34)CC2)c2ncccc2c1` [Compound 2, 8-{4-[2-(1-benzofuran-3-yl)ethyl]-1-piperazinyl}-6-chloroquinoline], the Ki amounted to 1710 nM.

As for `Cc1cc(N2CCN(CCc3coc4ccccc34)CC2)c2ncccc2c1` [Compound 3, 8-{4-[2-(1-benzofuran-3-yl)ethyl]-1-piperazinyl}-6-methylquinoline], the Ki was determined as 75.6 nM.

The molecule `COc1cc(N2CCN(CCc3coc4ccccc34)CC2)c2ncccc2c1` [Compound 4, 8-{4-[2-(1-benzofuran-3-yl)ethyl]-1-piperazinyl}-6-methoxyquinoline] had an inhibitory constant (Ki) of 612 nM.

Take `Clc1ccc2c(CCN3CCN(c4cccc5cccnc45)CC3)coc2c1` [Compound 5, 8-{4-[2-(6-chloro-1-benzofuran-3-yl)ethyl]-1-piperazinyl}-quinoline]: the Ki came out at 1.6 nM.

The molecule `Fc1cc(N2CCN(CCc3coc4cc(Cl)ccc34)CC2)c2ncccc2c1` [Compound 6, 8-{4-[2-(6-chloro-1-benzofuran-3-yl)ethyl]-1-piperazinyl}-6-fluoro-quinoline] registered a Ki of 1080 nM.

`Cc1cc(N2CCN(CCc3coc4cc(Cl)ccc34)CC2)c2ncccc2c1` [Compound 8, 8-{4-[2-(6-chloro-1-benzofuran-3-yl)ethyl]-1-piperazinyl}-6-methyl-quinoline] showed a Ki of 1780 nM.

`COc1ccc2c(CCN3CCN(c4cccc5cccnc45)CC3)coc2c1` [Compound 9, 8-{4-[2-(6-methoxy-1-benzofuran-3-yl)ethyl]-1-piperazinyl}-quinoline] showed a Ki of 71.3 nM.

In turn, `COc1ccc2c(CCN3CCN(c4cc(C)cc5cccnc45)CC3)coc2c1` [Compound 10, 8-{4-[2-(6-methoxy-1-benzofuran-3-yl)ethyl]-1-piperazinyl}-6-methyl-quinoline] displayed an inhibitory constant (Ki) of 206 nM.

Take `COc1ccc2c(CCN3CCN(c4cc(Cl)cc5cccnc45)CC3)coc2c1` [Compound 11, 8-{4-[2-(6-methoxy-1-benzofuran-3-yl)ethyl]-1-piperazinyl}-6-chloro-quinoline]: the Ki was found to be 540 nM.

As for `Clc1ccc2occ(CCN3CCN(c4cccc5cccnc45)CC3)c2c1` [Compound 12, 8-{4-[2-(5-chloro-1-benzofuran-3-yl)ethyl]-1-piperazinyl}-quinoline], the affinity, expressed as Ki, was 42.2 nM.

In turn, `Clc1cc(N2CCN(CCc3coc4ccc(Cl)cc34)CC2)c2ncccc2c1` [Compound 13, 8-{4-[2-(5-chloro-1-benzofuran-3-yl)ethyl]-1-piperazinyl}-6-chloro-quinoline] showed a Ki of 270 nM.

The molecule `Cc1cc(N2CCN(CCc3coc4ccc(Cl)cc34)CC2)c2ncccc2c1` [Compound 14, 8-{4-[2-(5-chloro-1-benzofuran-3-yl)ethyl]-1-piperazinyl}-6-methyl-quinoline] showed a Ki of 9.82 nM.

Molecule `Fc1ccc2occ(CCN3CCN(c4cccc5cccnc45)CC3)c2c1` [Compound 15, 8-{4-[2-(5-fluoro-1-benzofuran-3-yl)ethyl]-1-piperazinyl}-quinoline] displayed a Ki of 67.2 nM.

`COc1cc(N2CCN(CCc3coc4ccc(F)cc34)CC2)c2ncccc2c1` [Compound 16, 8-{4-[2-(5-fluoro-1-benzofuran-3-yl)ethyl]-1-piperazinyl}-6-methoxy-quinoline] gave a Ki of 180 nM.

For `Fc1cc(N2CCN(CCc3coc4ccc(F)cc34)CC2)c2ncccc2c1` [Compound 17, 8-{4-[2-(5-fluoro-1-benzofuran-3-yl)ethyl]-1-piperazinyl}-6-fluoro-quinoline], the Ki came to 50.9 nM.

Consider `COc1cccc2c(CCN3CCN(c4cccc5cccnc45)CC3)coc12` [Compound 18, 8-{4-[2-(7-methoxy-1-benzofuran-3-yl)ethyl]-1-piperazinyl}-quinoline], for which the affinity, expressed as Ki, was 9.46 nM.

As for `COc1cccc2c(CCN3CCN(c4cc(Cl)cc5cccnc45)CC3)coc12` [Compound 20, 8-{4-[2-(7-methoxy-1-benzofuran-3-yl)ethyl]-1-piperazinyl}-6-chloro-quinoline], the Ki came to 47.7 nM.

With `COc1ccc2occ(CCN3CCN(c4cc(C)cc5cccnc45)CC3)c2c1` [Compound 23, 8-{4-[2-(5-methoxy-1-benzofuran-3-yl)ethyl]-1-piperazinyl}-6-methyl-quinoline], the affinity, expressed as Ki, was 182 nM.

`COc1cc(N2CCN(CCc3coc4ccc(OC)cc34)CC2)c2ncccc2c1` [Compound 25, 8-{4-[2-(5-methoxy-1-benzofuran-3-yl)ethyl]-1-piperazinyl}-6-methoxy-quinoline] gave a Ki of 210 nM.

The molecule `COc1ccc2occ(CCN3CCN(c4cc(F)cc5cccnc45)CC3)c2c1` [Compound 26, 8-{4-[2-(5-methoxy-1-benzofuran-3-yl)ethyl]-1-piperazinyl}-6-fluoro-quinoline] had a Ki of 51 nM.

The molecule `CC(CN1CCN(c2cccc3cccnc23)CC1)c1coc2ccccc12` (stereo not shown) [Compound 27, 8-{4-[2-(1-benzofuran-3-yl)propyl]-1-piperazinyl}quinoline] registered a Ki of 51.9 nM.

Molecule `CC(CN1CCN(c2cc(Cl)cc3cccnc23)CC1)c1coc2ccccc12` (stereo not shown) [Compound 28, 8-{4-[2-(1-benzofuran-3-yl)propyl]-1-piperazinyl}-6-chloro-quinoline] came in with a Ki of 125 nM.

`CC(CN1CCN(c2cc(F)cc3cccnc23)CC1)c1coc2ccccc12` (stereo not shown) [Compound 29, 8-{4-[2-(1-benzofuran-3-yl)propyl]-1-piperazinyl}-6-fluoro-quinoline] registered a Ki of 115 nM.

The molecule `Cc1cc(N2CCN(CC(C)c3coc4ccccc34)CC2)c2ncccc2c1` (stereo not shown) [Compound 30, 8-{4-[2-(1-benzofuran-3-yl)propyl]-1-piperazinyl}-6-methyl-quinoline] showed a Ki of 347 nM.

As for `COc1cccc2c(C(C)CN3CCN(c4cccc5cccnc45)CC3)coc12` (stereo not shown) [Compound 31, 8-{4-[2-(7-methoxy-1-benzofuran-3-yl)propyl]-1-piperazinyl}quinoline], the Ki stood at 9.53 nM.

`COc1cccc2c(C(C)CN3CCN(c4cc(C)cc5cccnc45)CC3)coc12` (stereo not shown) [Compound 32, 8-{4-[2-(7-methoxy-1-benzofuran-3-yl)propyl]-1-piperazinyl}-6-methyl-quinoline] registered a Ki of 58.2 nM.

Take `COc1cccc2c(C(C)CN3CCN(c4cc(Cl)cc5cccnc45)CC3)coc12` (stereo not shown) [Compound 33, 8-{4-[2-(7-methoxy-1-benzofuran-3-yl)propyl]-1-piperazinyl}-6-chloro-quinoline]: the affinity, expressed as Ki, was 183 nM.

The molecule `COc1cccc2c(C(C)CN3CCN(c4cc(C)cc5cccnc45)CC3)coc12` (stereo not shown) [Compound 34, 8-{4-[2-(7-methoxy-1-benzofuran-3-yl)propyl]-1-piperazinyl}-6-methyl-quinoline] yielded a Ki of 881 nM.

The molecule `COc1cc(N2CCN(C(C)Cc3coc4c(OC)cccc34)CC2)c2ncccc2c1` (stereo not shown) [Compound 36, 6-methoxy-8-{4-[2-(7-methoxy-1-benzofuran-3-yl)-1-methylethyl)piperazin-1-yl]quinoline] had a Ki of 31 nM.

In the case of `COc1ccc2occ(CC(C)N3CCN(c4cc(Cl)cc5cccnc45)CC3)c2c1` (stereo not shown) [Compound 39, 6-chloro-8-{4-[2-(5-methoxy-1-benzofuran-3-yl)-1-methylethyl)piperazin-1-yl]quinoline], the affinity, expressed as Ki, was 40.1 nM.

On to `COc1ccc2occ(CC(C)N3CCN(c4cc(C)cc5cccnc45)CC3)c2c1` (stereo not shown) [Compound 40, 6-methyl-8-{4-[2-(5-methoxy-1-benzofuran-3-yl)-1-methylethyl)piperazin-1-yl]quinoline], for which affinity was put at a Ki of 549 nM.

The molecule `COc1cc(N2CCN([C@H]3CC[C@@H](c4csc5ccc(F)cc54)CC3)CC2)c2ncccc2c1` [Compound 49, 6-methoxy-8-{4-[4-cis(5-fluoro-1-benzothien-3-yl)cyclohexyl]piperazin-1-yl}quinoline] had a Ki of 659 nM.

In the case of `COc1cc(N2CCN([C@H]3CC[C@H](c4csc5ccc(F)cc54)CC3)CC2)c2ncccc2c1` [Compound 50, 6-methoxy-8-{4-[4-trans(5-fluoro-1-benzothien-3-yl)cyclohexyl]piperazin-1-yl}quinoline], the affinity, expressed as Ki, was 65.3 nM.

Take `Fc1cc(N2CCN([C@H]3CC[C@@H](c4coc5ccccc54)CC3)CC2)c2ncccc2c1` [Compound 55, 8-{4-[4-cis(1-benzofuran-3-yl)cyclohexyl]-1-piperazinyl}-6-fluoroquinoline]: the Ki was determined as 472 nM.

Turning to `COc1cccc2c1occ2[C@H]1CC[C@H](N2CCN(c3ccc(F)c4cccnc34)CC2)CC1` [Compound 58, 5-fluoro-8-{4-[4-trans(7-methoxy-1-benzofuran-3-yl)cyclohexyl]-1-piperazinyl}quinoline], affinity was put at a Ki of 272 nM.

Turning to `COc1cccc2c1occ2[C@H]1CC[C@@H](N2CCN(c3ccc(Cl)c4cccnc34)CC2)CC1` [Compound 63, 5-chloro-8-{4-[4-cis(7-methoxy-1-benzofuran-3-yl)cyclohexyl]piperazin-1-yl}quinoline], the Ki turned out to be 124 nM.

With `COc1cccc2c1occ2[C@H]1CC[C@H](N2CCN(c3ccc(Cl)c4cccnc34)CC2)CC1` [Compound 64, 5-chloro-8-{4-[4-trans(7-methoxy-1-benzofuran-3-yl)cyclohexyl]piperazin-1-yl}quinoline], the affinity corresponds to a Ki of 176 nM.

`COc1ccc2occ([C@H]3CC[C@@H](N4CCN(c5ccc(Cl)c6cccnc56)CC4)CC3)c2c1` [Compound 65, 5-chloro-8-{4-[4-cis(5-methoxy-1-benzofuran-3-yl)cyclohexyl]piperazin-1-yl}quinoline]: the affinity corresponds to a Ki of 53 nM.

`COc1ccc2occ([C@H]3CC[C@H](N4CCN(c5ccc(Cl)c6cccnc56)CC4)CC3)c2c1` [Compound 66, 5-chloro-8-{4-[4-trans(5-methoxy-1-benzofuran-3-yl)cyclohexyl]piperazin-1-yl}quinoline] showed a Ki of 1200 nM.

System in the next data set: not given
Experiment: not given
Details: not given
The term melting point denotes the temperature of the solid-liquid transition. `COc1cc(N2CCN(CCc3coc4ccc(F)cc34)CC2)c2ncccc2c1` (as salt: HCl) [Compound 16, 8-{4-[2-(5-fluoro-1-benzofuran-3-yl)ethyl]-1-piperazinyl}-6-methoxy-quinoline] returned a melting point of 80 °C.
